Results on five molecules are retold here after patent publication US7250521B2, “Method for production of Δ1-pyrrolines” (Bayer CropScience Aktiengesellschaft, priority 2001, dated 2007).

A short description of this series: logP determination by HPLC on reverse-phase column (C 18), EEC directive 79/831 Annex V.A8. The format is physicochemical. How it is done: In the acidic range, the determination is carried out at pH 2.3 using the mobile phases 0.1% aqueous phosphoric acid and acetonitrile; linear gradient from 10% acetonitrile to 90% acetonitrile.
In the neutral range, the determination is carried out at pH 7.5 using the mobile phases 0.01 molar aqueous phosphate buffer solution and acetonitrile; linear gradient from 10% acetonitrile to 90% acetonitrile.

Where [1] appears, read: reverse-phase HPLC column (C 18), pH 2.3, acidic range, pH 2.3; 0.1% aqueous phosphoric acid/acetonitrile gradient; 43° C.; values marked a).
The mark [2] stands for this setting: reverse-phase HPLC column (C 18), pH 7.5, neutral range, pH 7.5; 0.01 molar aqueous phosphate buffer/acetonitrile gradient; 43° C.; values marked b).

As a reminder, the chromatographic logP is a lipophilicity value derived from retention on a column. A low value points to lower lipophilicity.

Regarding `COc1ccccc1C1=NC(c2ccc(-c3ccc(OC(F)(F)F)cc3)cc2)CC1` (stereo not shown) [Example 5], the chromatographic logP reads like this: under setting [1], 2.55; under setting [2], 5.23.

In the case of `CSc1ccc(C2CCC(=O)N2C(=O)OC(C)(C)C)cc1` (stereo not shown) [III-15], the chromatographic logP worked out at 2.84 under setting [1] and 2.83 under setting [2].

Molecule `Clc1ccc(C2=NC(c3ccccc3)CC2)cc1` (stereo not shown) [Example 90] had a chromatographic logP under setting [1] of 1.43.

For `C=CCOc1ccc(C2CCC(c3ccccc3F)=N2)cc1` (stereo not shown) [Example 10], the chromatographic logP under setting [1] came out at 1.63.

Regarding `Clc1ccc(C2=NC(c3ccc(Br)cc3)CC2)cc1` (stereo not shown) [Example 92], the chromatographic logP under setting [1] came to 2.17.
